What was measured:
[1] = molecular target: Voltage-gated inwardly rectifying potassium channel KCNH2 (Homo sapiens, UniProt Q12809); details: hek293; also: in other assays of this panel Not Active means under 50% inhibition at 10 µM
Cannabinoid receptor 1 = Cannabinoid receptor 1 (Homo sapiens, UniProt P21554); format: cell membranes, Chem-1, Membrane; details: chem-1; also: in other assays of this panel Not Active means under 50% inhibition at 10 µM
Progesterone receptor = molecular target: T1, Progesterone receptor (Bos taurus, UniProt Q690N0); assay: DRUGMATRIX: Progesterone radioligand binding (ligand: [3H] R-5020); format: tissue-based, Uterus; details: Not Active = under 50% inhibition at 10 µM
T1 sequence (Q690N0 whole entry): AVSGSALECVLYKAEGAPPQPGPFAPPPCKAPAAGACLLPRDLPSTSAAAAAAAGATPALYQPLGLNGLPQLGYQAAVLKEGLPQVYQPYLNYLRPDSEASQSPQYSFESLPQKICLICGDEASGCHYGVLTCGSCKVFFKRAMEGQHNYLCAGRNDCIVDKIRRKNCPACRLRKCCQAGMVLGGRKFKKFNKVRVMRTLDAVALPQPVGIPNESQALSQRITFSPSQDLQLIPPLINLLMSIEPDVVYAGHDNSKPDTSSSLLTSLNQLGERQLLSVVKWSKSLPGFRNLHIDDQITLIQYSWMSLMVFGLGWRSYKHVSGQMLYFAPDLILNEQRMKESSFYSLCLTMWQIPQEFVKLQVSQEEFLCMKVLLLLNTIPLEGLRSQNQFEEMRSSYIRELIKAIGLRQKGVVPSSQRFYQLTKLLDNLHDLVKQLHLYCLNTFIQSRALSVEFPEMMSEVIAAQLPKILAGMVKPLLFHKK

[2] = molecular target: T2, C-C chemokine receptor type 4 (Homo sapiens, UniProt P51679); format: cell membranes, Membrane; details: chem-1; also: in other assays of this panel Not Active means under 50% inhibition at 10 µM
T2 sequence (P51679 whole entry): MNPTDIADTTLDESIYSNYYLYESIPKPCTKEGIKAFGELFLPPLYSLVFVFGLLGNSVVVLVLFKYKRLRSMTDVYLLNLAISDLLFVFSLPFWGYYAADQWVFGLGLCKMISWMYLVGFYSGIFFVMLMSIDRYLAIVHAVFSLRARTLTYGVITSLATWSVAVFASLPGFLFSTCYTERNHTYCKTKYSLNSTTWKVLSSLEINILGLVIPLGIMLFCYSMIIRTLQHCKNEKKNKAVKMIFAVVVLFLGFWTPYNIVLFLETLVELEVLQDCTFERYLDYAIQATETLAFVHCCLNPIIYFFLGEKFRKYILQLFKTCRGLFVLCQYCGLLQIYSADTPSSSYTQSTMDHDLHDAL

D(4) dopamine receptor = molecular target: T3, D(4) dopamine receptor (Homo sapiens, UniProt P21917); assay: DRUGMATRIX: Dopamine D4.2 radioligand binding (ligand: [3H] Spiperone); format: cell membranes, Membrane; details: cho-k1; Not Active = under 50% inhibition at 10 µM
T3 sequence (P21917 whole entry): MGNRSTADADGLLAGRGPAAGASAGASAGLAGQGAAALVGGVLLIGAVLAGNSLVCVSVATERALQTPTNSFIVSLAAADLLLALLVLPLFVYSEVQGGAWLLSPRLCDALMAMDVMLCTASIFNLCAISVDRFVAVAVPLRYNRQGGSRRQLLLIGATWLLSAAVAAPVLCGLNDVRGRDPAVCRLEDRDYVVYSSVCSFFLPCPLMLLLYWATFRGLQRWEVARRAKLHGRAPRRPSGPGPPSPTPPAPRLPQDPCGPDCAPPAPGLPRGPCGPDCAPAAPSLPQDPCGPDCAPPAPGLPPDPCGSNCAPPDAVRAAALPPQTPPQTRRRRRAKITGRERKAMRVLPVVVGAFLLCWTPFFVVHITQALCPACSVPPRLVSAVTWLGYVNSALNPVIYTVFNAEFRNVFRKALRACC

[3] = DRUGMATRIX: Platelet-Derived Growth Factor (PDGF) radioligand binding (ligand: [125I] PDGF); format: cell-based; details: nih3t3; Not Active = under 50% inhibition at 10 µM
[4] = DRUGMATRIX: Interleukin IL-1 radioligand binding (ligand: [125I] interleukin 1beta); format: cell membranes, Membrane; details: nih3t3; Not Active = under 50% inhibition at 10 µM
[5] = DRUGMATRIX: Phosphodiesterase PDE4 enzyme inhibition (substrate: [3H]cAMP + cAMP); details: u-937; Not Active = under 50% inhibition at 10 µM

Chain of Voltage-gated inwardly rectifying potassium channel KCNH2 (Q12809 whole entry): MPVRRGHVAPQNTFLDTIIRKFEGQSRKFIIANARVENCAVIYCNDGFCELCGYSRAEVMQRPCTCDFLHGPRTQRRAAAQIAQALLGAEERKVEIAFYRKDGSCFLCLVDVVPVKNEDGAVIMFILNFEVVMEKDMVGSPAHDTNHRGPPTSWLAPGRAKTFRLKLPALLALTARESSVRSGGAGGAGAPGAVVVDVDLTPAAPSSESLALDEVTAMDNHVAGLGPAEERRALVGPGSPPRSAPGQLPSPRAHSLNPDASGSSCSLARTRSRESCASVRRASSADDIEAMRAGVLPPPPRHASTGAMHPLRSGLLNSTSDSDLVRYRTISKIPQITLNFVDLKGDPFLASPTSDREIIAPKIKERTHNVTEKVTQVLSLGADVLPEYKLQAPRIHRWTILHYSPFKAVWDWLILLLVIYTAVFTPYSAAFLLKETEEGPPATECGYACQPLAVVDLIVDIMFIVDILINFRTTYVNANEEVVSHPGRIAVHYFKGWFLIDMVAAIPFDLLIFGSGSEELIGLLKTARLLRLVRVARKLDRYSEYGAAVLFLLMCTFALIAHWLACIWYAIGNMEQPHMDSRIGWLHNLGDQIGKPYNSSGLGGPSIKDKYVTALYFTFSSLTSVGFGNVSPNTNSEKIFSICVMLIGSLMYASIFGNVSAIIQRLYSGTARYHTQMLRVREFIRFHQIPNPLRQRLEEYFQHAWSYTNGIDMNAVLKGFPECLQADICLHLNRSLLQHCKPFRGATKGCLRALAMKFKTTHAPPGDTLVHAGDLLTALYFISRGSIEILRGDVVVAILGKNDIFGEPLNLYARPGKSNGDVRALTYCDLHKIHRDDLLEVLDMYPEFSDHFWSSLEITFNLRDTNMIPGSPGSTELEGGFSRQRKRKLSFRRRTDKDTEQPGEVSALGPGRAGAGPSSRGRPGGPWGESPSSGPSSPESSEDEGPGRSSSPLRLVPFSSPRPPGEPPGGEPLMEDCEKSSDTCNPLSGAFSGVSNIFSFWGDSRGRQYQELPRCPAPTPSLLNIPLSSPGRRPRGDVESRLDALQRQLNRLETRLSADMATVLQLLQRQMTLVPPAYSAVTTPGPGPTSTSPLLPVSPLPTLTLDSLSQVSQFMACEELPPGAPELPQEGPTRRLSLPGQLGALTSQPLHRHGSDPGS
Chain of Cannabinoid receptor 1 (P21554 whole entry): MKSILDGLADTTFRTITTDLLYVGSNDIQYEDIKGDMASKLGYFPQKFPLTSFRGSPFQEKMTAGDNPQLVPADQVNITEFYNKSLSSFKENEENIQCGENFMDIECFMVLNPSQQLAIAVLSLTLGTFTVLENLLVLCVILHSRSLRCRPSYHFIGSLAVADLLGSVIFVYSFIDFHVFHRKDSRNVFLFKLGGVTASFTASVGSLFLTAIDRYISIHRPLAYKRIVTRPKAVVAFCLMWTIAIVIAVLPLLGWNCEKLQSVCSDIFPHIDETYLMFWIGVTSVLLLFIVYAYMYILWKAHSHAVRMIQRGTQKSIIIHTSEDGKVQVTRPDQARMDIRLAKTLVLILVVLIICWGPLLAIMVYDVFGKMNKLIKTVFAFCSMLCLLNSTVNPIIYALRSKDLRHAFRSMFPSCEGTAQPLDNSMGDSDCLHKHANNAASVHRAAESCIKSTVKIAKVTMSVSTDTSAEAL

S=C=Nc1cccc2ccccc12 [1-NAPHTHYLISOTHIOCYANATE]
Not Active: IC50 [1] | Ki [1] | IC50 (Cannabinoid receptor 1) | IC50 (Progesterone receptor) | IC50 [2] | IC50 (D(4) dopamine receptor) | IC50 [3] | Ki [3] | IC50 [4] | Ki [4] | IC50 [5] | Ki [5]

C[C@](O)(CS(=O)(=O)c1ccc(F)cc1)C(=O)Nc1ccc(C#N)c(C(F)(F)F)c1 [(R)-BICALUTAMIDE]
Not Active: IC50 [1] | Ki [1] | IC50 (Cannabinoid receptor 1) | IC50 (Progesterone receptor) | IC50 [2] | IC50 (D(4) dopamine receptor) | IC50 [3] | Ki [3] | IC50 [4] | Ki [4] | IC50 [5] | Ki [5]

CCCC(=O)Nc1ccc(OCC(O)CNC(C)C)c(C(C)=O)c1 (stereo not given) [ACEBUTOLOL]
Not Active: IC50 [1] | Ki [1] | IC50 (Cannabinoid receptor 1) | IC50 (Progesterone receptor) | IC50 [2] | IC50 (D(4) dopamine receptor) | IC50 [3] | Ki [3] | IC50 [4] | Ki [4] | IC50 [5] | Ki [5]

CC(=O)Nc1ccc(O)cc1 [ACETAMINOPHEN]
Not Active: IC50 [1] | Ki [1] | IC50 (Cannabinoid receptor 1) | IC50 (Progesterone receptor) | IC50 [2] | IC50 (D(4) dopamine receptor) | IC50 [3] | Ki [3] | IC50 [4] | Ki [4] | IC50 [5] | Ki [5]

COc1cc2c(c3oc(=O)c4c(c13)CCC4=O)[C@@H]1C=CO[C@@H]1O2 [AFLATOXIN]
Not Active: IC50 [1] | Ki [1] | IC50 (Cannabinoid receptor 1) | Ki (Cannabinoid receptor 1) | IC50 (Progesterone receptor) | Ki (Progesterone receptor) | IC50 [2] | Ki [2] | IC50 (D(4) dopamine receptor) | Ki (D(4) dopamine receptor) | IC50 [3] | Ki [3] | IC50 [4] | Ki [4] | IC50 [5] | Ki [5]

N=C(N)NC(=O)c1nc(Cl)c(N)nc1N [AMILORIDE]
Not Active: IC50 [1] | Ki [1] | IC50 (Cannabinoid receptor 1) | IC50 (Progesterone receptor) | IC50 [2] | IC50 (D(4) dopamine receptor) | IC50 [3] | Ki [3] | IC50 [4] | Ki [4] | IC50 [5] | Ki [5]

Cc1cc(=O)n(-c2ccccc2)n1C [ANTIPYRINE]
Not Active: IC50 [1] | Ki [1] | IC50 (Cannabinoid receptor 1) | IC50 (Progesterone receptor) | IC50 [2] | IC50 (D(4) dopamine receptor) | IC50 [3] | Ki [3] | IC50 [4] | Ki [4] | IC50 [5] | Ki [5]

CN1C(=O)COc2c(C(=O)NC3CN4CCC3CC4)cc(Cl)cc21 (stereo not given) [AZASETRON]
Not Active: IC50 [1] | Ki [1] | IC50 (Cannabinoid receptor 1) | IC50 (Progesterone receptor) | IC50 [2] | IC50 (D(4) dopamine receptor) | IC50 [3] | Ki [3] | IC50 [4] | Ki [4] | IC50 [5] | Ki [5]

C[C@H]1C[C@H]2[C@@H]3CCC4=CC(=O)C=C[C@]4(C)[C@@]3(Cl)[C@@H](O)C[C@]2(C)[C@@]1(O)C(=O)CO [BECLOMETHASONE]
Not Active: IC50 [1] | Ki [1] | IC50 (Cannabinoid receptor 1) | IC50 (Progesterone receptor) | IC50 [2] | IC50 (D(4) dopamine receptor) | IC50 [3] | Ki [3] | IC50 [4] | Ki [4] | IC50 [5] | Ki [5]

CCOC(=O)[C@H](CCc1ccccc1)N[C@H]1CCc2ccccc2N(CC(=O)O)C1=O [BENAZEPRIL]
Not Active: IC50 [1] | Ki [1] | IC50 (Cannabinoid receptor 1) | IC50 (Progesterone receptor) | IC50 [2] | IC50 (D(4) dopamine receptor) | IC50 [3] | Ki [3] | IC50 [4] | Ki [4] | IC50 [5] | Ki [5]

Nc1c(CC(=O)O)cccc1C(=O)c1ccc(Br)cc1 [BROMFENAC]
Not Active: IC50 [1] | Ki [1] | IC50 (Cannabinoid receptor 1) | IC50 (Progesterone receptor) | IC50 [2] | IC50 (D(4) dopamine receptor) | IC50 [3] | Ki [3] | IC50 [4] | Ki [4] | IC50 [5] | Ki [5]

CCCCN1CCCCC1C(=O)Nc1c(C)cccc1C.Cl (stereo not given) [BUPIVACAINE HYDROCHLORIDE]
Not Active: IC50 [1] | Ki [1] | IC50 (Cannabinoid receptor 1) | IC50 (Progesterone receptor) | IC50 [2] | IC50 (D(4) dopamine receptor) | IC50 [3] | Ki [3] | IC50 [4] | Ki [4] | IC50 [5] | Ki [5]

O=C1CC2(CCCC2)CC(=O)N1CCCCN1CCN(c2ncccn2)CC1 [BUSPIRONE]
Not Active: IC50 [1] | Ki [1] | IC50 (Cannabinoid receptor 1) | IC50 (Progesterone receptor) | IC50 [2] | IC50 (D(4) dopamine receptor) | IC50 [3] | Ki [3] | IC50 [4] | Ki [4] | IC50 [5] | Ki [5]

— ChEMBL document CHEMBL1909046, “DrugMatrix in vitro pharmacology data”
